# Measurements published in US9334246B2, “Substituted triazines for malaria treatment and chemoprophylaxis” (The United States of America, as represented by the …, priority 2013, dated 2016).
# Key:
# Format in all cases: cell-based, Plasmodium falciparum
# P. falciparum D6 = test: Malaria SYBR Green Fluorescence Assay, D6 strain; settings: for D6: SYBR Green Assay
# P. falciparum W2 = test: Malaria SYBR Green Fluorescence Assay, W2 strain; settings: for W2: SYBR Green Assay
# P. falciparum C235 = test: Malaria SYBR Green Fluorescence Assay, C235 strain; settings: for C235: SYBR Green Assay
Molecule,D6 (P. falciparum D6) [ng/mL],W2 (P. falciparum W2) [ng/mL],C235 (P. falciparum C235) [ng/mL],D6 (SYBR Green Assay IC50) (P. falciparum D6) [µg/mL],W2 (SYBR Green Assay IC50) (P. falciparum W2) [µg/mL],C235 (SYBR Green Assay IC50) (P. falciparum C235) [µg/mL]
Clc1cccc(-c2nc(NCCN3CCCC3)nc(C(Cl)(Cl)Cl)n2)c1 [Cmpd 334],9,2,15,,,
CC(C)N1CCC(CNc2nc(-c3ccc(-c4ccccc4)cc3)nc(C(Cl)(Cl)Cl)n2)CC1 [Cmpd 496],,,,0.029,0.015,0.014
OCCN1CCN(c2nc(-c3ccc(Cl)c(Cl)c3)nc(C(Cl)(Cl)Cl)n2)CC1 [Cmpd 304],80,41,201,,,
CC(C)(C)c1ccc(-c2nc(NCCN3CCCC3)nc(C(Cl)(Cl)Cl)n2)cc1 [Cmpd 246],48,59,35,,,
CC(C)N1CCC(CNc2nc(-c3ccc(S(C)(=O)=O)cc3)nc(C(Cl)(Cl)Cl)n2)CC1 [Cmpd 491],,,,0.048,0.018,0.034
FC(F)(F)c1cccc(-c2nc(NCCc3ccccn3)nc(C(Cl)(Cl)Cl)n2)c1 [Cmpd 186],494,115,499,,,
"COc1ccc(-c2nc(NCC3(N)CCCC3)nc(C(Cl)(Cl)Cl)n2)cc1OC [Compound 674, COC1═C(OC)C═C(C═C1)C1═NC(NCC2(N)CCCC2)═NC(═N1)C(Cl)(Cl)Cl]",8,6,18,,,
CSc1ccc(cc1)c2nc(nc(n2)C(Cl)(Cl)Cl)N3CC4CC3CN4 [Compound 723],128,92,118,,,
CCC(N)(CC)CNc1nc(-c2ccc(Cl)c(Cl)c2)nc(C(Cl)(Cl)Cl)n1 [Cmpd 388],,,,0.132,0.098,0.153
Cc1ccc(-c2nc(NCC3CCN(C)CC3)nc(C(Cl)(Cl)Cl)n2)cc1 [Cmpd 503],,,,0.044,0.014,0.026
CC1(C)C=Cc2cc(-c3nc(NCCN4CCCC4)nc(C(Cl)(Cl)Cl)n3)ccc2O1 [Cmpd 553],,,,0.01863,0.01506,0.01596
ClC(Cl)(Cl)c1nc(-c2ccccc2)nc(N2CCCNCC2)n1 [Cmpd 408],,,,0.19,0.084,0.189
COc1ccc(-c2nc(NCCCN(C)C)nc(C(Cl)(Cl)Cl)n2)cc1OC [Cmpd 450],,,,0.239,0.091,0.252
CC(C)(C)c1ccc(cc1)c2nc(NCC(C)(C)CN3CCCCCC3)nc(n2)C(Cl)(Cl)Cl [Compound 737],241.3,101.3,244.2,,,
OCCN1CCN(c2nc(-c3ccc4ccccc4c3)nc(C(Cl)(Cl)Cl)n2)CC1 [Cmpd 305],35,23,68,,,
ClC(Cl)(Cl)c1nc(-c2ccc(-c3ccccc3)cc2)nc(N2CCCNCC2)n1 [Cmpd 198],64,40,70,,,
COc1ccc(-c2nc(NCC3CCN(C(C)C)CC3)nc(C(Cl)(Cl)Cl)n2)cc1OC [Cmpd 501],,,,0.362,0.094,0.241
NC1(CNC2═NC(═NC(═N2)C2═CC(Cl)═CC(Cl)═C2)C(Cl)(Cl)Cl)CC1 [Compound 683],727,503,795,,,

Molecule,D6 (P. falciparum D6) [ng/mL],W2 (P. falciparum W2) [ng/mL],C235 (P. falciparum C235) [ng/mL],D6 (SYBR Green Assay IC50) (P. falciparum D6) [µg/mL],W2 (SYBR Green Assay IC50) (P. falciparum W2) [µg/mL],C235 (SYBR Green Assay IC50) (P. falciparum C235) [µg/mL]
CN1CCCN(CC1)C1═NC(NC2═CC═C(OC(F)(F)F)C═C2)═NC(═N1)C(Cl)(Cl)Cl [Compound 658],701,625,875,,,
CN(C)CCCNc1nc(Nc2ccc(Cl)cc2)nc(n1)C(Cl)(Cl)Cl [Compound 636],,,,0.016,0.018,0.04
OCCN1CCN(c2nc(Nc3ccc(OC(F)(F)F)cc3)nc(C(Cl)(Cl)Cl)n2)CC1 [Cmpd 302],166,107,299,,,
"FC(F)(F)Oc1ccc(Nc2nc(NCCN3CCCC3)nc(C(Cl)(Cl)Cl)n2)cc1 [Compound 656, FC(F)(F)OC1═CC═C(NC2═NC(═NC(NCCN3CCCC3)═N2)C(Cl)(Cl)Cl)C═C1]",3,2,7,,,
Clc1cc(Cl)cc(-c2nc(NCc3ccccn3)nc(C(Cl)(Cl)Cl)n2)c1 [Cmpd 210],112,72,78,,,
CCN(CC)CCNc1nc(-c2ccccc2C)nc(C(Cl)(Cl)Cl)n1 [Cmpd 123],57,31,67,,,
CC(C)CN1CCC(CC1)NC1═NC(═NC(═N1)C1═CC(═CC═C1)C(F)(F)F)C(Cl)(Cl)Cl [Compound 700],513,368,567,,,
CCN1CCC(CNc2nc(-c3cccc(OC)c3)nc(C(Cl)(Cl)Cl)n2)CC1 [Cmpd 258],50,29,26,,,
Clc1cccc(-c2nc(NCCCN3CCCC3)nc(C(Cl)(Cl)Cl)n2)c1 [Cmpd 433],,,,0.076,0.044,0.145
CC(C)CN1CCC(CC1)NC1═NC(═NC(═N1)C(Cl)(Cl)Cl)C1═C(C═CC═C1)[N+]([O−])═O [Compound 684],225,66,155,,,
CCN(CC)CCNc1nc(Nc2ccc(OC)nc2)nc(C(Cl)(Cl)Cl)n1 [Cmpd 342],335,149,398,,,
CC(C)CN1CCC(CC1)NC1═NC(═NC(═N1)C1═CC═CC═C1)C(Cl)(Cl)Cl [Compound 704],867,223,525,,,
CN(C)CCCNc1nc(-c2ccc(S(C)(=O)=O)cc2)nc(C(Cl)(Cl)Cl)n1 [Cmpd 442],,,,0.002,0.001,0.002
Cc1ccc(-c2nc(NCCc3cccnc3)nc(C(Cl)(Cl)Cl)n2)cc1 [Cmpd 172],209,106,346,,,
COc1ccc(-c2nc(N3CCN(CCO)CC3)nc(C(Cl)(Cl)Cl)n2)c2ccccc12 [Cmpd 422],,,,0.291,0.073,0.31
COc1ccc(-c2nc(NCCc3cccnc3)nc(C(Cl)(Cl)Cl)n2)cc1 [Cmpd 174],430,181,641,,,
CS(═O)(═O)c1ccc(cc1)c2nc(Nc3cccnc3)nc(n2)C(Cl)(Cl)Cl [Compound 654],198,185,271,,,
Cc1ccc(-c2nc(NCCc3ccncc3)nc(C(Cl)(Cl)Cl)n2)cc1 [Cmpd 145],168,94,344,,,
